Measurements: ChEMBL document CHEMBL1126189, “Synthesis and X-ray crystallographic analysis of quinazolinone cholecystokinin/gastrin receptor ligands” (J Med Chem, 1992)

Legend:
[1] = target: T1, Gastrin/cholecystokinin type B receptor (Mus musculus, UniProt P56481); experiment: Evaluated for inhibition of [125I]CCK-8S binding to cholecystokinin CCK-B receptor from mouse brain membranes […] (in vitro)
T1 sequence (P56481 whole entry): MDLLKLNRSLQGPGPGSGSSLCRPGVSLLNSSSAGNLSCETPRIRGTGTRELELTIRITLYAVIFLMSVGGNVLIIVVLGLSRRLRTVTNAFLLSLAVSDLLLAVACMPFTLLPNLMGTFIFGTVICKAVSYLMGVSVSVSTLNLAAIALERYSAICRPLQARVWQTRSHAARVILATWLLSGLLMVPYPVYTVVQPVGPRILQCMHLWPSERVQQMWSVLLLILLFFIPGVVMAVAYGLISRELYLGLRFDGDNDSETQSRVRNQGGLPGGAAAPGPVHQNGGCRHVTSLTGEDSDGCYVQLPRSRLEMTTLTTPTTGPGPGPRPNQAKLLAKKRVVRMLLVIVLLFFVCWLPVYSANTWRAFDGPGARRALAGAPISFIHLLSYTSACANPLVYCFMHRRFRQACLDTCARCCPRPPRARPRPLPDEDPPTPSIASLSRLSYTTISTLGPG

[2] = target: T2, Gastrin/cholecystokinin type B receptor (Mus musculus) (UniProt P56481); experiment: Evaluated for inhibition of [125I]-CCK-8S binding to cholecystokinin CCK-B receptor from mouse brain membranes […] (in vitro); conditions: 10 uM
T2 sequence (whole entry): T1 sequence (P56481 whole entry)

IC50 [1] | Compound | inhibition [2]
9100 nM | CC(C)Oc1cccc(-n2c(C(C)Cc3c[nH]c4ccccc34)nc3ccccc3c2=O)c1 (centres undefined) | 
 | O=c1c2ccccc2nc(Cc2c[nH]c3ccccc23)n1-c1ccccc1 | 36%
1400 nM | CC(C)Oc1cccc(-n2c(/C=C/c3c[nH]c4ccc(Br)cc34)nc3ccccc3c2=O)c1 | 
 | O=c1c2ccccc2nc(CCCc2ccccc2)n1-c1ccccc1 | 21%
 | O=c1c2ccccc2nc(CCCc2c[nH]c3ccccc23)n1-c1ccccc1 | 20%
430 nM | CC(C)Oc1cccc(-n2c(/C=C/c3c[nH]c4ccccc34)nc3ccccc3c2=O)c1 | 
 | O=c1c2ccccc2nc(Cc2ccccc2)n1-c1ccccc1 | 6%
 | O=c1c2ccccc2nc(CCc2ccccc2)n1-c1ccccc1 | 27%
70 nM | CC(C)Oc1cccc(-n2c(CC(C)c3c[nH]c4ccccc34)nc3ccccc3c2=O)c1 (centres undefined) | 
